From patent publication US9937198B2, “Multi-functional composition and preparation method and application thereof” (Suzhou Sciscape Bio-Pharmaceutical Technology Co., Ltd., priority 2013, dated 2018)

Key:
[1] = system: human skin; test: Determination of moisture content in human skin; format: in vivo
Text: 1. Subjects and Materials
One hundred and ten people were selected from the volunteers who participating in this test. They were females at the age of 30 to 55 with skin moisture content below 12%.
Solutions of Composition 1 to 7 prepared in this example were used except that the sterile water for medical use was replaced with warm water.
By skin moisture content, the subjects were randomly divided into 11 groups, i.e., a blank control group, administration groups 1 to 7 and negative control groups 1 to 3. The subjects in administration groups 1 to 7 respectively took 200 mL of the solution of Compositions 1 to 7 twice a day at 9 am and 9 pm while the subjects in the blank control group took 200 mL of warm water at the same time. In addition, the subjects in negative control groups 1 to 3 respectively took 200 mL of the solution of trehalose (0.15 g/mL), 200 mL of the solution of validamycin (0.3 mg/mL) and 200 mL of the solution of algal polysaccharides (0.15 g/mL). The administration lasted for 30 days. Skin moisture content was determined before administration and after administration. The determination was conducted in a spacious and well ventilated examination room. When the subjects were calm, the location to be determined was cleaned with sterile cotton ball soaked with distilled water. Fifteen minutes after the location was wiped dry, the skin moisture content was determined by skin moisture tester under the trademark of “KAKUSAN”.

[2] = system: patients with type-II diabetes; test: Long-term experiment for treatment in human diabetics; format: in vivo; conditions: for Blood glucose level after administration: 200 mL oral
Procedure: Six patients with type-II diabetes were fasted overnight and then measured for fasting blood glucose level. Then they were orally administered with 200 mL of the solution of Composition 1, or 200 mL of solution of trehalose (0.15 g/mL), or 200 mL of the solution of validamycin (0.3 mg/mL), or 200 mL of distilled water, as stated in Table 3.4. The blood glucose level in every patient was tested before administration and one day, one week, two weeks and one month post administration.

[3] = after administration, 200 mL twice a day for 30 days

| SMILES | Skin moisture content [1, 3] [%] | Skin moisture content ([1]; before administration) [%] | Blood glucose level after administration ([2]; 1 month, individual type-II diabetics) [mmol/L] | Blood glucose level after administration ([2]; 1 week, individual type-II diabetics) [mmol/L] | Blood glucose level after administration ([2]; 2 weeks, individual type-II diabetics) [mmol/L] | Blood glucose level after administration ([2]; 1 day, individual type-II diabetics) [mmol/L] | Blood glucose level before administration ([2]; fasting baseline, individual type-II diabetics, long-term) [mmol/L] | effect on blood glucose level in patients with type-II diabetes, long-term ([2]; up to one month) |
| --- | --- | --- | --- | --- | --- | --- | --- | --- |
| OC[C@H]1O[C@H](O[C@H]2O[C@H](CO)[C@@H](O)[C@H](O)[C@H]2O)[C@H](O)[C@@H](O)[C@@H]1O [trehalose] | 8.52 ± 0.55 | 8.55 ± 0.68 |  |  |  |  |  |  |
| OCC1=C[C@H](N[C@H]2C[C@H](CO)[C@@H](O[C@@H]3O[C@H](CO)[C@@H](O)[C@H](O)[C@H]3O)[C@H](O)[C@H]2O)[C@H](O)[C@@H](O)[C@@H]1O [validamycin] | 8.35 ± 0.47 | 8.21 ± 0.98 | 8.9 | 9.0 | 8.7 | 8.7 | 8.8 | had no influence on blood glucose level |
